Experimental data published in PMC11283614 (Veterinary World, 2024).
≈ marks a conversion by molar mass, not a printed value. Read-outs that look alike come from different tables or passages of the source.

Key:
[1] = in vitro; settings: African green monkey
[2] = test system: SARS-CoV-2; experiment: Suppression of SARS-CoV-2 replication in Vero cells, CPE-based titration of supernatant; type: cell-based
[3] = test system: SARS-CoV-2 (delta strain); parameters: species or system Syrian hamsters; settings: hamster, in vivo
[4] = test system: SARS-CoV-2; experiment: Blood cell populations (blood smears) of infected hamsters; type: in vivo, Syrian hamsters; settings: 7 dpi, therapeutic action
[5] = test system: SARS-CoV-2; experiment: Myelogram / bone marrow cell populations of infected hamsters; type: in vivo, Syrian hamsters
[6] = test system: SARS-CoV-2 (delta strain); parameters: species or system Syrian hamsters; settings: hamster, in vivo; remark: listed apart in the source
[7] = Syrian, hamster, in vivo

## CSc1nnc2cc(C)nc(SC)n12 [5a]
[1]
  CC50: 240 µg/mL (≈ 1060 µM)

## COC(=O)CSc1nnc2cc(C)nc(SC)n12 [5c]
[1]
  CC50: 40 µg/mL (≈ 141 µM)

## CSc1nc(C)cc2nnc(SCCOc3ccccc3)n12 [5d]
[2]; 100 TCD50/mL SARS-CoV-2, compounds added after 1 h virus incubation
  Time during which viral activity was inhibited: 24 to 72 h
[2]; up to a dilution of 100 TCD50/ml
  Suppression of viral activity: almost completely suppressed
[3]
  Development of lung injury (micro-CT): inhibited
[4]
  Blood cells: Band: 19 ± 4.8%
  Blood cells: Basophil: 0.01%
  Blood cells: Destroyed: 1.0%
  Blood cells: Eosinophil: 0.1 ± 0.05%
  Blood cells: Lymphoblast: 0.9 ± 0.2%
  Blood cells: Lymphocyte: 65 ± 9.3%
  Blood cells: Metamyelocyte: 2 ± 0.5%
  Blood cells: Monocyte: 2.1 ± 0.3%
  Blood cells: Myeloid: 1.1 ± 0.1%
  Blood cells: Segment: 8.8%
[5]; 9th day
  Effect on bone marrow changes seen in the positive control group: does not obstruct the similar bone marrow changes
[5]; 18th day
  Recovery of bone marrow cell populations compared to the positive control: more rapid recovery of all cell populations
[5]; infected hamsters, 9 dpi
  Myelogram: Band: 26.1 ± 4.4%
  Myelogram: Basophil: 0.1 ± 0.04%
  Myelogram: Basophil erythroblast: 4.6 ± 0.9%
  Myelogram: Destroyed: 3.2 ± 0.3%
  Myelogram: Eosinophil: 3.2 ± 0.4%
  Myelogram: Limph.patol.: 1.1 ± 0.4%
  Myelogram: Lymphoblast: 3.5 ± 0.6%
  Myelogram: Lymphocyte: 8.9 ± 1.2%
  Myelogram: Macroph. Island: 1.6 ± 0.03%
  Myelogram: Macroph. Resident: 1.6 ± 0.05%
  Myelogram: Megakaryoblast: 1.6 ± 0.02%
  Myelogram: Megakaryocyte azurophil: 1.6 ± 0.1%
  Myelogram: Megakaryocyte basophil: 1.6 ± 0.1%
  Myelogram: Metamyelocyte: 5.2 ± 1.0%
  Myelogram: Mitos: 1.6 ± 0.02%
  Myelogram: Monoblast: 2.9 ± 0.7%
  Myelogram: Monocyte: 3.8 ± 0.8%
  Myelogram: Myeloid: 3.9 ± 0.5%
  Myelogram: Ortochrom erythroblast: 8.8 ± 0.9%
  Myelogram: Pathol neutrophil: 2.1 ± 0.5%
  Myelogram: Polychromatophil erythroblast: 5.9 ± 2.1%
  Myelogram: Proerythroblast: 3.1 ± 0.5%
  Myelogram: Segment: 3.7 ± 0.5%
[5]; infected hamsters, 18 dpi
  Myelogram: Band: 15.6 ± 3.1 %
  Myelogram: Basophil: 0.01 ± 0.01%
  Myelogram: Destroyed: 0.1 ± 0.01%
  Myelogram: Eosinophil: 0.2 ± 0.01%
  Myelogram: Limph.patol.: 0.1 ± 0.04 %
  Myelogram: Lymphoblast: 2.3 ± 0.5%
  Myelogram: Lymphocyte: 5.2 ± 0.8%
  Myelogram: Macroph. Island: 0.1 ± 0.01%
  Myelogram: Macroph. Resident: 0.1 ± 0.01%
  Myelogram: Megakaryoblast: 0.03 ± 0.02%
  Myelogram: Megakaryocyte azurophil: 0.01 ± 0.01%
  Myelogram: Megakaryocyte basophil: 0.01 ± 0.01%
  Myelogram: Metamyelocyte: 20.1 ± 4.3%
  Myelogram: Mitos: 0.01 ± 0.01%
  Myelogram: Monoblast: 1.0 ± 0.02%
  Myelogram: Monocyte: 1.5 ± 0.4%
  Myelogram: Myeloid: 14.3 ± 2.7%
  Myelogram: Pathol neutrophil: 0.1 ± 0.01 %
  Myelogram: Polychromatophil erythroblast: 17.9 ± 2.3 %
  Myelogram: Segment: 3.3 ± 0.3 %
[6]
  BM section histology (H&E): preserved structure and cellularity
  BM smear: restored erythroid population
[7]; 0.2 mg/kg
  Number of dead hamsters after 2 days: 0
  Number of dead hamsters after 7 days: 0
[7]; 1 mg/kg
  Number of dead hamsters after 2 days: 0
  Number of dead hamsters after 7 days: 0
[1]
  CC50: 320 µg/mL (≈ 963 µM)

## CSc1nnc2cc(C)nc(SCc3ccccc3)n12 [6a]
[1]
  CC50: 20 µg/mL (≈ 66.1 µM)
